Reference: the NIST ThermoML archive (doi:10.1016/j.fluid.2006.01.022)
Numbers after ± are expanded uncertainties.

Assays:
[1] = xn = mol fraction of the nth substance listed; details: Liquid, Alternating current cell with electrodes
[2] = 101.33 kPa, Liquid, Alternating current cell with electrodes

[Br][Al]([Br])[Br] [aluminum bromide] + CCn1cc[n+](C)c1.[Br-]
electrical conductivity [S/m], [1]
Details	x1 = 0.3	x1 = 0.6
258.1 K	0.048 ± 0.0096	0.0432 ± 0.0086
263.1 K	0.0898 ± 0.018	0.0717 ± 0.014
268.1 K	0.122 ± 0.024	0.113 ± 0.023
273.1 K	0.22 ± 0.044	0.16 ± 0.032
278.1 K	0.284 ± 0.057	0.226 ± 0.045
283.1 K	0.454 ± 0.091	0.338 ± 0.068
288.1 K	0.599 ± 0.12	0.447 ± 0.089
293.1 K	0.784 ± 0.16	0.645 ± 0.13
298.1 K	0.979 ± 0.2	0.877 ± 0.17
303.1 K	1.21 ± 0.24	1.14 ± 0.23
308.1 K	1.49 ± 0.3	1.42 ± 0.28
313.1 K	1.82 ± 0.36	1.75 ± 0.35
318.1 K	2.14 ± 0.43	2.11 ± 0.42
323.1 K	2.54 ± 0.51	2.56 ± 0.51
328.1 K	3.05 ± 0.61	3.04 ± 0.61
333.1 K	3.5 ± 0.7	3.62 ± 0.72
338.1 K	4.05 ± 0.81	4.22 ± 0.84
343.1 K	4.6 ± 0.92	4.87 ± 0.97
348.1 K	5.14 ± 1	5.56 ± 1.1
353.1 K	5.79 ± 1.2	6.35 ± 1.3
358.1 K	6.95 ± 1.4	7.16 ± 1.4
363.1 K	7.62 ± 1.5	7.79 ± 1.6
368.1 K	8.28 ± 1.7	8.57 ± 1.7
373.1 K	8.95 ± 1.8	9.46 ± 1.9
378.1 K	9.7 ± 1.9	10.4 ± 2.1
383.1 K	10.6 ± 2.1	11.4 ± 2.3
388.1 K	11.4 ± 2.3	12.3 ± 2.5
393.1 K	12 ± 2.4	12.8 ± 2.6
398.1 K	–	13.7 ± 2.7
403.1 K	–	14.5 ± 2.9
408.1 K	–	15.3 ± 3.1
413.1 K	–	15.8 ± 3.2
418.1 K	–	16.5 ± 3.3

[Cl][Al]([Cl])[Cl] [aluminum chloride] + CCn1cc[n+](C)c1.[Cl-]
electrical conductivity [S/m], [1]
Details	x1 = 0.33	x1 = 0.6
253.1 K	0.0315 ± 0.0063	0.0377 ± 0.0075
258.1 K	0.0515 ± 0.01	0.0517 ± 0.01
263.1 K	0.0855 ± 0.017	0.1 ± 0.02
268.1 K	0.127 ± 0.025	0.143 ± 0.029
273.1 K	0.195 ± 0.039	0.206 ± 0.041
278.1 K	0.3 ± 0.06	0.283 ± 0.057
283.1 K	0.39 ± 0.078	0.385 ± 0.077
288.1 K	0.53 ± 0.11	0.515 ± 0.1
293.1 K	0.705 ± 0.14	0.669 ± 0.13
298.1 K	0.907 ± 0.18	0.861 ± 0.17
303.1 K	1.11 ± 0.22	1.08 ± 0.22
308.1 K	1.37 ± 0.27	1.32 ± 0.26
313.1 K	1.67 ± 0.33	1.6 ± 0.32
318.1 K	2.02 ± 0.4	1.91 ± 0.38
323.1 K	2.4 ± 0.48	2.26 ± 0.45
328.1 K	2.81 ± 0.56	2.64 ± 0.53
333.1 K	3.29 ± 0.66	3.11 ± 0.62
338.1 K	3.8 ± 0.76	3.56 ± 0.71
343.1 K	4.34 ± 0.87	4.02 ± 0.8
348.1 K	4.9 ± 0.98	4.56 ± 0.91
353.1 K	5.68 ± 1.1	5.08 ± 1
358.1 K	6.27 ± 1.2	5.63 ± 1.1
363.1 K	7.13 ± 1.4	6.17 ± 1.2
368.1 K	7.95 ± 1.6	7.28 ± 1.5
373.1 K	8.5 ± 1.7	8.09 ± 1.6
378.1 K	9.11 ± 1.8	9.1 ± 1.8
383.1 K	9.97 ± 2	9.72 ± 1.9
388.1 K	10.9 ± 2.2	10.1 ± 2
393.1 K	11.8 ± 2.4	10.4 ± 2.1
398.1 K	12.3 ± 2.5	–
403.1 K	12.7 ± 2.5	–

CCOS(=O)(=O)[O-].CCn1cc[n+](C)c1 [1-ethyl-3-methylimidazolium ethyl sulfate]
[2]
Details	electrical conductivity [S/m]
258.1 K	0.0286 ± 0.0057
263.1 K	0.0374 ± 0.0075
268.1 K	0.0495 ± 0.0099
273.1 K	0.0727 ± 0.015
278.1 K	0.105 ± 0.021
283.1 K	0.139 ± 0.028
288.1 K	0.202 ± 0.04
293.1 K	0.291 ± 0.058
298.1 K	0.382 ± 0.076
303.1 K	0.485 ± 0.097
308.1 K	0.606 ± 0.12
313.1 K	0.724 ± 0.14
318.1 K	0.861 ± 0.17
323.1 K	1.01 ± 0.2
328.1 K	1.18 ± 0.24
333.1 K	1.35 ± 0.27
338.1 K	1.54 ± 0.31
343.1 K	1.75 ± 0.35
348.1 K	1.95 ± 0.39
353.1 K	2.18 ± 0.44
358.1 K	2.41 ± 0.48
363.1 K	2.68 ± 0.54
368.1 K	3 ± 0.6
373.1 K	3.29 ± 0.66
378.1 K	3.57 ± 0.71
383.1 K	3.86 ± 0.77
388.1 K	4.15 ± 0.83
393.1 K	4.47 ± 0.89
398.1 K	4.77 ± 0.95
403.1 K	5.09 ± 1
408.1 K	5.39 ± 1.1
413.1 K	5.68 ± 1.1
418.1 K	6 ± 1.2
423.1 K	6.29 ± 1.3
428.1 K	6.58 ± 1.3
433.1 K	6.86 ± 1.4

CCn1cc[n+](C)c1.F[B-](F)(F)F [1-ethyl-3-methylimidazolium tetrafluoroborate]
[2]
Details	electrical conductivity [S/m]
258.1 K	0.245 ± 0.049
263.1 K	0.296 ± 0.059
268.1 K	0.445 ± 0.089
273.1 K	0.612 ± 0.12
278.1 K	0.735 ± 0.15
283.1 K	0.896 ± 0.18
288.1 K	1.09 ± 0.22
293.1 K	1.3 ± 0.26
298.1 K	1.57 ± 0.31
303.1 K	1.79 ± 0.36
308.1 K	2.02 ± 0.4
313.1 K	2.28 ± 0.46
318.1 K	2.55 ± 0.51
323.1 K	2.85 ± 0.57
328.1 K	3.22 ± 0.64
333.1 K	3.56 ± 0.71
338.1 K	3.95 ± 0.79
343.1 K	4.35 ± 0.87
348.1 K	4.77 ± 0.95
353.1 K	5.22 ± 1
358.1 K	5.55 ± 1.1
363.1 K	5.95 ± 1.2
368.1 K	6.46 ± 1.3
373.1 K	6.9 ± 1.4
378.1 K	7.36 ± 1.5
383.1 K	7.83 ± 1.6
388.1 K	8.32 ± 1.7
393.1 K	8.77 ± 1.8
398.1 K	9.29 ± 1.9
403.1 K	9.79 ± 2
408.1 K	10.3 ± 2
413.1 K	10.8 ± 2.2
418.1 K	11.3 ± 2.3
423.1 K	11.8 ± 2.4
428.1 K	12.3 ± 2.5
433.1 K	12.7 ± 2.5
